Assay results taken from article PMC6788984, “High-potency ligands for DREADD imaging and activation in rodents and monkeys” (Nature Communications, 2019).
pKi: −log10 of the molar value.

What was measured:
[1] = biological target: T1, hM4Di (Homo sapiens, UniProt P08173, A203G/Y113C); test: [3H]clozapine competition binding, membranes of HEK-293 cells expressing hM4Di
T1 sequence (P08173 1-479 Y113C/A203G): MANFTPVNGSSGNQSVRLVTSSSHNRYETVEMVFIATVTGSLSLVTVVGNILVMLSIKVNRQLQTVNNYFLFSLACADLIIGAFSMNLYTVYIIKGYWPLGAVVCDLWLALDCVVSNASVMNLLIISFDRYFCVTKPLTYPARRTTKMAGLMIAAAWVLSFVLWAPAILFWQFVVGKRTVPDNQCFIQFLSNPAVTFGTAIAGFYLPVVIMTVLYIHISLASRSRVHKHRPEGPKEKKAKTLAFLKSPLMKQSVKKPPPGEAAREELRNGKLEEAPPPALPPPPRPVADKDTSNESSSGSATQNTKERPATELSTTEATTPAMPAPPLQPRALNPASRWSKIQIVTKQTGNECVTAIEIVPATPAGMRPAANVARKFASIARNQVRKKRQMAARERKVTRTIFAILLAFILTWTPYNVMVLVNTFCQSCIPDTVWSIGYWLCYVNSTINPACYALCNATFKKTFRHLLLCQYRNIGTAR
Procedure: (§1) Cells were routinely tested for myclopasma contamination (MycoAlert® Mycoplasma Detection Kit, Lonza). Cells were seeded on 60 cm^2 dishes at 4 × 10^6 cells/dish 24 h before transfection. The indicated amount of cDNA was transfected into HEK-293 cells using polyethylenimine (PEI; Sigma-Aldrich) in a 1–2 DNA:PEI ratio. Cell harvesting for radioligand binding experiments or signaling assays were performed approximately 48 h after transfection.
(§2) Cells were suspended in Tris-HCl 50 mM pH 7.4 supplemented with protease inhibitor cocktail (1:100, Sigma-Aldrich, St. Louis, MO, USA). The dissected brain tissue was diluted in Tris-HCl 50 mM buffer supplemented with protease inhibitor cocktail (1:1000). HEK-293 cells or brain tissue were disrupted with a Polytron homogenizer (Kinematica, Basel, Switzerland). Homogenates were centrifuged at 48,000g (50 min, 4 °C) and washed twice in the same conditions to isolate the membrane fraction. Protein was quantified by the bicinchoninic acid method (Pierce). […] In all cases, free and membrane-bound radioligand were separated by rapid filtration of 500-μl aliquots in a 96-well plate harvester (Brandel, Gaithersburg, MD, USA) and washed with 2 ml of ice-cold Tris-HCl buffer. […] One-site competition curves were fitted using Prism 7 (GraphPad Software, La Jolla, CA, USA). Ki values were calculated using the Cheng–Prusoff equation.

[2] = test system: untransfected HEK-293 cells; test: Negative controls of the functional assays: HEK-293 cells without DREADD; type: cell-based, human; settings: HEK-293 cells
Procedure: BRET assays were performed to detect receptor ligand-induced Gαo1 protein activation. […] Forty-eight hour after transfection cells were harvested, washed and resuspended in phosphate-buffered saline (PBS). Approximately, 200,000 cells/well were distributed in 96-well plates, and 5 µM Coelenterazine H (substrate for luciferase) was added to each well. Five minutes after addition of Coelenterazine H, ligands were added to each well. The fluorescence of the acceptor was quantified (excitation at 500 nm and emission at 540 nm for 1-s recordings) in a PheraStar FSX plate reader (BMG Labtech) to confirm the constant expression levels across experiments. In parallel, the BRET signal from the same batch of cells was determined as the ratio of the light emitted by mVenus (510–540 nm) over that emitted by RLuc (485 nm). Results were calculated for the BRET change (BRET ratio for the corresponding drug minus BRET ratio in the absence of the drug) 5 min after the addition of the ligands.
Intracellular Ca^2+ concentration was monitored using the fluorescent Ca^2+ biosensor GCaMP6f. HEK-293 cells were transfected with 7 µg/dish of the cDNA encoding for hM3Dq (Addgene #89149) or hM4Di (Addgene #89150) and 7 µg/dish of GCaMP6. Forty-eight hours after transfection, cells were harvested, washed, resuspended in Mg^2+-free Locke’s buffer pH 7.4 (154 mM NaCl, 5.6 mM KCl, 3.6 mM NaHCO3, 2.3 mM CaCl2, and 5 mM HEPES) containing 5.6 mM of glucose and approximately 200,000 cells/well were distributed in black 96-well plates. Increasing concentrations of the indicated compound were added to the cells and fluorescence intensity (excitation at 480 nm, emission at 530 nm) was measured at 18-s intervals during 250 s using a PHERAstar FSX (BMG Labtech). The net change in intracellular Ca^2+ concentration was expressed as F − F0 where F is the fluorescence at a given concentration of ligand and F0 is the average of the baseline values (fluorescence values of buffer-treated wells).

[3] = biological target: hM3Dq (Homo sapiens, UniProt P20309, A239G/Y149C); test: [3H]clozapine competition binding, membranes of HEK-293 cells expressing hM3Dq
hM3Dq, sequence (P20309 whole entry Y149C/A239G): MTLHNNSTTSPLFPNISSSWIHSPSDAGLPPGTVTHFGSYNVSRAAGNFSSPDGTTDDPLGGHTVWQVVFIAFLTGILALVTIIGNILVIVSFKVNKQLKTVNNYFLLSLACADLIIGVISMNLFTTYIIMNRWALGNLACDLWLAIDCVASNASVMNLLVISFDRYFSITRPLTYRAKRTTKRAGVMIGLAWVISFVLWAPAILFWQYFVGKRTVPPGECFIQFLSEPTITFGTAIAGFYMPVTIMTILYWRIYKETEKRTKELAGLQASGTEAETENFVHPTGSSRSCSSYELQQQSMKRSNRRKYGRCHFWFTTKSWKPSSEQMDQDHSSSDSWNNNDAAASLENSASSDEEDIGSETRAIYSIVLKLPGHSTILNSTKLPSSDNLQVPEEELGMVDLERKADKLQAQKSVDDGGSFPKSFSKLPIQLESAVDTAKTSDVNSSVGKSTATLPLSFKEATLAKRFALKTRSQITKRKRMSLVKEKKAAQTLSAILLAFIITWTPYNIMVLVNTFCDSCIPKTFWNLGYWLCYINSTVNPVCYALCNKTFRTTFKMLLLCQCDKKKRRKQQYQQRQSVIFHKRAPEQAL
Procedure: as §1, §2

pKi [1] | pKi [3] | SMILES | functional response, BRET (Go-alpha-Rluc8, beta1, gamma2-mVenus), no DREADD [2] | functional response, GCaMP6f, no DREADD [2]
8.05 | – | CCN1CCN(C2=Nc3ccccc3Nc3ccccc32)CC1 [C22, reference compound] | – | –
– | – | C[N+]1([O-])CCN(C2=Nc3cc(Cl)ccc3Nc3ccccc32)CC1 [CNO, clozapine N-oxide, reference compound] | did not show any functional response | did not show any functional response
7.63 | 7.98 | CCN1CCN(C2=Nc3cc(Cl)ccc3Nc3ccc(F)cc32)CC1 [JHU37107, 8-Chloro-11-(4-ethylpiperazin-1-yl)-2-fluoro-5H-dibenzo[b,e][1,4]diazepine] | – | –
